Data reported in ChEMBL document CHEMBL5131442, “Design and synthesis of Osthole-based compounds as potential Nrf2 agonists” (Bioorg Med Chem Lett, 2022).
Activity calls are given as the source filed them. No cut-off for these calls is given here.

Target: T1, Nuclear factor erythroid 2-related factor 2 (Homo sapiens) (UniProt Q16236)
T1 sequence (whole entry): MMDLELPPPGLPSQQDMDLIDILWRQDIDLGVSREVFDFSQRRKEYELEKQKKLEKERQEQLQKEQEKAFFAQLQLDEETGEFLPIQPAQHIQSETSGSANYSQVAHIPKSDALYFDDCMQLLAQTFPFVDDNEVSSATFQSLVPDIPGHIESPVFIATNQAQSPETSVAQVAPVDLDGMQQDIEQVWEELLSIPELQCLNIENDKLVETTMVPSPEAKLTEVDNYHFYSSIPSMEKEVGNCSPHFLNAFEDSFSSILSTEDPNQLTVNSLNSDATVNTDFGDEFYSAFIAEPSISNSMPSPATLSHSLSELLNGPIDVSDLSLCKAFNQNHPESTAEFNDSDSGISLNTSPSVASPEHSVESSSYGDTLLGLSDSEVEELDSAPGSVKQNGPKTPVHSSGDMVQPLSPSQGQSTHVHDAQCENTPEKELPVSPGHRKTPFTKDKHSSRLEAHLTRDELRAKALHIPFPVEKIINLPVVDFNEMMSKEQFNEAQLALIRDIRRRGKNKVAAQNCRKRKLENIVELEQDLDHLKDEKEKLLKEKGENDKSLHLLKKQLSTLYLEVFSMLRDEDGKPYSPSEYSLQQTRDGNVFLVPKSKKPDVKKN
Assay: Agonist activity at Nrf2 (unknown origin) at 20 uM by dual-luciferase reporter gene assay
Details: filed as agonist

Structure (SMILES) | fold change (FC)
COc1ccc2[nH]cc(CC(=O)Oc3ccc4ccc(=O)oc4c3CC=C(C)C)c2c1 | 1.59
COc1ccc2[nH]c(C)c(CC(=O)Oc3ccc4ccc(=O)oc4c3CC=C(C)C)c2c1 | 1.56
Cc1ccc(-c2cc3cc(Br)c4c(c3oc2=O)CCC(C)(C)O4)cc1 | 1.61
COc1ccccc1-c1cc2cc(Br)c3c(c2oc1=O)CCC(C)(C)O3 | 1.58
CC1(C)CCc2c(c(Br)cc3cc(-c4ccc(F)cc4)c(=O)oc23)O1 | 1.26
CC1(C)CCc2c(c(Br)cc3cc(-c4ccc(C(F)(F)F)cc4)c(=O)oc23)O1 | 2.04
CC(C)=CCc1c(OC(=O)Cc2c[nH]c3ccccc23)ccc2ccc(=O)oc12 | 1.55
CC(C)=CCc1c(OC(=O)NCCc2c[nH]c3ccc(Cl)cc23)ccc2ccc(=O)oc12 | 0.79
CC(C)=CCc1c(OC(=O)NCCc2c[nH]c3ccccc23)ccc2ccc(=O)oc12 | 0.95
CC(C)=CCc1c(OC(=O)NCCc2c(C)[nH]c3ccccc23)ccc2ccc(=O)oc12 | 0.61
COc1cccc(-c2cc3cc(Br)c4c(c3oc2=O)CCC(C)(C)O4)c1 | 1.41
CC(C)=CCc1c(OC(=O)NCCc2c[nH]c3ccc(C)cc23)ccc2ccc(=O)oc12 | 0.95
COc1ccc2c(CC(C)NC(=O)Oc3ccc4ccc(=O)oc4c3CC=C(C)C)c[nH]c2c1 (centres undefined) | 0.73
COc1ccc2c(CC(=O)Oc3ccc4ccc(=O)oc4c3CC=C(C)C)c[nH]c2c1 | 1.51
COc1ccc(-c2cc3cc(Br)c4c(c3oc2=O)CCC(C)(C)O4)cc1 | 1.53
CC(C)=CCc1c(OC(=O)Cc2c[nH]c3ccc(Br)cc23)ccc2ccc(=O)oc12 | 1.41
CC1(C)CCc2c(c(Br)cc3cc(-c4ccccc4)c(=O)oc23)O1 | 2.57
COc1ccc2ccc(=O)oc2c1CC=C(C)C | 1.18
CC(C)=CCc1c(OC(=O)Cc2c[nH]c3ccc(C)cc23)ccc2ccc(=O)oc12 | 1.51
CC1(C)CCc2c(c(Br)cc3cc(-c4ccc(OC(F)(F)F)cc4)c(=O)oc23)O1 | 1.69
CC1(C)CCc2c(c(Br)cc3cc(-c4cccc(C(F)(F)F)c4)c(=O)oc23)O1 | 1.52
CC(C)=CCc1c(OC(=O)Cc2c[nH]c3cc(Cl)ccc23)ccc2ccc(=O)oc12 | 1.65
CC(C)=CCc1c(OC(=O)Cc2c(C)[nH]c3ccccc23)ccc2ccc(=O)oc12 | 1.51
COc1ccc2[nH]cc(CCNC(=O)Oc3ccc4ccc(=O)oc4c3CC=C(C)C)c2c1 | 0.98

Target: Kelch-like ECH-associated protein 1 (Homo sapiens) (UniProt Q14145)
Assay: Binding affinity to Keap1 in human A549 cells assessed as thermal stabilization by measuring change in melting temperature at 10 uM by cellular thermal shift assay
Type: cell-based
Details: not given

Kelch-like ECH-associated protein 1 (Homo sapiens), sequence (Q14145 whole entry): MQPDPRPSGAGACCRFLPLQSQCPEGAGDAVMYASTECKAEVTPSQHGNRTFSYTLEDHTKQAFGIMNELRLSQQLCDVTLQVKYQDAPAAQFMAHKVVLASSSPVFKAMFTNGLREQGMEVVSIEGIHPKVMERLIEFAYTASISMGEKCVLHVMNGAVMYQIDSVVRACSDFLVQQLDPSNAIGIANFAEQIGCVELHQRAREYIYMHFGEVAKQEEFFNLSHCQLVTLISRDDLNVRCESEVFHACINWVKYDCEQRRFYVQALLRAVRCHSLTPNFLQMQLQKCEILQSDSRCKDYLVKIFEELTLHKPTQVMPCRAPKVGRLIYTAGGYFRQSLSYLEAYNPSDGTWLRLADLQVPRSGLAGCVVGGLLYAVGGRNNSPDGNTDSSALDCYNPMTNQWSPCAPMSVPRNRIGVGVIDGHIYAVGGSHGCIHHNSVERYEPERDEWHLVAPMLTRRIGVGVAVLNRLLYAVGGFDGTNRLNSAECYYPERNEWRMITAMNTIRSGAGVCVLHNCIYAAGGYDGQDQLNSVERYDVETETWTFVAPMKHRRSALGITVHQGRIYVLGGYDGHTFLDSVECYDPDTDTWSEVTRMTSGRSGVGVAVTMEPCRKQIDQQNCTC

Structure (SMILES) | Activity
CC1(C)CCc2c(c(Br)cc3cc(-c4ccccc4)c(=O)oc23)O1 | Active

Target: T1, Nuclear factor erythroid 2-related factor 2 (Homo sapiens)
Assay: Agonist activity at Nrf2 (unknown origin) at 10 uM by dual-luciferase reporter gene assay
Details: filed as agonist

Structure (SMILES) | fold change (FC)
CC(C)(C)c1cc(O)ccc1O | 1.7

Target: T2, Nuclear factor erythroid 2-related factor 2 (Homo sapiens, UniProt Q16236)
T2 sequence (Q16236 whole entry): T1 sequence (whole entry)
Assay: Activation of Nrf2 in HEK293T cells
Type: cell-based
Details: not given

Structure (SMILES) | EC50
CC1(C)CCc2c(c(Br)cc3cc(-c4ccc(C(F)(F)F)cc4)c(=O)oc23)O1 | 4.55 µM
CC1(C)CCc2c(c(Br)cc3cc(-c4ccccc4)c(=O)oc23)O1 | 2.9 µM

Target: Keap1/Nrf2 (Homo sapiens) (UniProt Q16236+Q14145)
Assay: Inhibition of Keap1-Nrf2 protein-protein interaction in human A549 cells assessed as reduction in Nrf2 ubiquitination by immunoprecipitation analysis
Type: cell-based
Details: not given

Keap1/Nrf2 (Homo sapiens), sequence (Q14145 whole entry, looked up, one chain of several): as the sequence (Q14145 whole entry) above

Structure (SMILES) | inhibition
CC1(C)CCc2c(c(Br)cc3cc(-c4ccccc4)c(=O)oc23)O1 | Active
